Assay results as given in the supplement of paper PMC13380429.

Key:
Settings in all cases: 72 h
[1] = test system: U2OS; test: cell viability relative to DMSO; higher = less toxic
[2] = test system: Caco-2; test: as above
[3] = test system: HepG2; test: as above
[4] = test system: Calu-3; test: as above
[5] = test system: Vero E6; test: as above
[6] = test system: U2OS; test: drug sensitivity score (DSS) for viability; higher = more toxic; extreme values may be limits of the assay
[7] = test system: Caco-2; test: as above
[8] = test system: HepG2; test: as above
[9] = test system: Calu-3; test: as above
[10] = test system: Vero E6; test: as above
[11] = test system: U2OS; test: relative viability EC50 (midpoint between 100% and the lowest measured viability); higher = less toxic
[12] = test system: Caco-2; test: as above
[13] = test system: HepG2; test: as above
[14] = test system: Calu-3; test: as above
[15] = test system: Vero E6; test: as above

Structure (SMILES)	cell viability ([1]; 1 nM) [%]	cell viability ([1]; 10 nM) [%]	cell viability ([1]; 100 nM) [%]	cell viability ([1]; 1000 nM) [%]	cell viability ([1]; 10000 nM) [%]	cell viability ([2]; 1 nM) [%]	cell viability ([2]; 10 nM) [%]	cell viability ([2]; 100 nM) [%]	cell viability ([2]; 1000 nM) [%]	cell viability ([2]; 10000 nM) [%]	cell viability ([3]; 1 nM) [%]	cell viability ([3]; 10 nM) [%]	cell viability ([3]; 100 nM) [%]	cell viability ([3]; 1000 nM) [%]	cell viability ([3]; 10000 nM) [%]	cell viability ([4]; 1 nM) [%]	cell viability ([4]; 10 nM) [%]	cell viability ([4]; 100 nM) [%]	cell viability ([4]; 1000 nM) [%]	cell viability ([4]; 10000 nM) [%]	cell viability ([5]; 1 nM) [%]	cell viability ([5]; 10 nM) [%]	cell viability ([5]; 100 nM) [%]	cell viability ([5]; 1000 nM) [%]	cell viability ([5]; 10000 nM) [%]	drug sensitivity score [6]	drug sensitivity score [7]	drug sensitivity score [8]	drug sensitivity score [9]	drug sensitivity score [10]	relative viability EC50 [11] [µM]	relative viability EC50 [12] [µM]	relative viability EC50 [13] [µM]	relative viability EC50 [14] [µM]	relative viability EC50 [15] [µM]
c1cc(CN2CCCNCCNCCCNCC2)ccc1CN1CCCNCCNCCCNCC1 [plerixafor]	101	99.8	97.9	97.2	98.1	101	96.1	97.5	101	95.2	92.9	104	88.4	106	96.5	90.7	104	97.3	94.4	105	104	99.1	104	101	100	0	0	0	0	0	> 10	> 10	> 10	> 10	> 10
CC(=O)Oc1cc2c(s1)CCN(C(C(=O)C1CC1)c1ccccc1F)C2 (stereo not given) [prasugrel]	104	98	102	97.9	98.8	102	101	93	105	94.1	105	95	106	103	93.3	101	103	102	97.3	106	100	93.6	96.2	96.2	93.2	0	0	0	0	0	> 10	> 10	> 10	> 10	> 10
CCCN(CCC)S(=O)(=O)c1ccc(C(=O)O)cc1 [probenecid]	97.5	97.5	95.2	99.1	95.9	95.8	97.6	88.8	104	93.3	105	91.6	97	95.4	109	88.3	106	102	118	91.3	102	104	103	99.3	99.6	0	0	0	0	0	> 10	> 10	> 10	> 10	> 10
O=c1c(O)c(-c2ccc(O)c(O)c2)oc2cc(O)cc(O)c12 [quercetin]	99.1	97	98	97	96.1	104	93.6	100	87.6	79.5	94.1	95.8	99.2	99.1	84	98.8	100	92.4	92.8	80.5	99.3	99	95.9	101	99.3	0	1.9	0.4	0.8	0	> 10	> 10	> 10	> 10	> 10
Cc1nnc(C(=O)NC(C)(C)c2nc(C(=O)NCc3ccc(F)cc3)c(O)c(=O)n2C)o1 [raltegravir]	104	95.9	100	97.5	100	102	104	94.4	94.7	99.7	100	102	97.6	118	90.3	104	99.3	99	107	104	101	99.3	95.7	97.5	94.4	0	0	0	0	0	> 10	> 10	> 10	> 10	> 10
CN(C)Cc1ccc(S(=O)(=O)n2ccc(/C=C/C(=O)NO)c2)cc1 [resminostat]	95.2	105	97.9	88.1	5.5	99.6	101	103	98.4	12.4	110	110	94	69.2	7.9	102	96.3	92.9	86.2	27.9	106	103	101	82.1	2	7.2	5.1	9.1	6.2	8.4	2.14	3.03	1.38	1.77	1.81
Cc1cc(OCC(=O)O)cc(C)c1Cc1ccc(O)c(C(C)C)c1 [sobetirome]	97.5	99.9	99.5	99.5	100	102	95.7	92.1	94.7	90.5	100	103	96	96.2	85	102	96.6	105	98.7	101	102	99.3	87.9	96.4	85.3	0	0	0.4	0	0.3	> 10	> 10	> 10	> 10	> 10
Nc1ccc(S(=O)(=O)Nc2nccs2)cc1 [sulfathiazole]	94.2	98.5	94.3	93.6	102	95.8	96.1	95.1	93.6	99	102	95	94.2	105	116	86.1	94.9	92.2	98	89.3	96.9	100	97.5	104	102	0	0	0	0	0	> 10	> 10	> 10	> 10	> 10
